Measurements taken from patent publication EP1129352B1 (priority 1998, dated 2000).
Like-named read-outs stand apart in the source and are kept apart here. Numbered stars: 1 amine (or outer) side, 2 acyl side, 3 side chain; on linkers, the order of the positions; unused ones are H or OH. Bridge positions count the residues as written; N and C are the ends. Square brackets hold non-standard residues; d marks the D form. Peptide text beside a SMILES is read from it. Adda = CO[C@@H](Cc1ccccc1)[C@@H](C)/C=C(C)/C=C/[C@H](N[*:1])[C@H](C)C(=O)[*:2]; dAsp(3S-Me) = C[C@H](C(=O)[*:3])[C@@H](N[*:1])C(=O)[*:2]; d(γGlu) = O=C(O)[C@@H](CCC(=O)[*:2])N[*:1]; NMeDha = C=C(NC)C(=O)O

Assays:
[1] = target: T1, protein phosphatase 2A (Homo sapiens, UniProt P67775); test: biochemical; assay type: binding
T1 construct: purchased Upstate Biotechnology (Lake Placid, NY)

[2] = target: T1, protein phosphatase 2A; test: biochemical; assay type: biochemical
[3] = read-out: % activity Competitive binding assay
[4] = read-out: % activity Protein phosphatase assay
[5] = 0.4%, preincubated 30 minutes on ice, relative to control, ± SEM

T1 sequence (P67775 whole entry): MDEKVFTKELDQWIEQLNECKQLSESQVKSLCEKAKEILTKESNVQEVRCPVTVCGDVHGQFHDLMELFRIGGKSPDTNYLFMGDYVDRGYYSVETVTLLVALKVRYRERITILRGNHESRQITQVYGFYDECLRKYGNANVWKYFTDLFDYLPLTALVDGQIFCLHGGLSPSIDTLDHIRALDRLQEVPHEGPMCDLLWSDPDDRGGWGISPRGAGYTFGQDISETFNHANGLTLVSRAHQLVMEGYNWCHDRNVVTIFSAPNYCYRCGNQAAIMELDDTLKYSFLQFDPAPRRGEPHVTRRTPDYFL

## Nc1ncnc2c1ncn2[C@@H]1O[C@H](COP(=O)(O)OP(=O)(O)OP(=O)(O)O)[C@@H](O)[C@H]1O [ATP]
[1]; [3]
  activity at 500 µM: 102 ± 1.7%
  activity at 2000 µM: 103.3 ± 0.2%
[2]; [4]
  activity at 500 µM: 29.8 ± 5.6%
  activity at 2000 µM: 9.8 ± 3.4%

## C[C@H](CCC(=O)NCCC[N+](C)(C)CCCS(=O)(=O)[O-])[C@H]1CC[C@H]2[C@@H]3[C@H](O)C[C@@H]4C[C@H](O)CC[C@]4(C)[C@H]3C[C@H](O)[C@]12C [CHAPS]
[1]
  % activity Competitive binding assay: 90.9 ± 9.9%
[2]
  % activity Protein phosphatase assay: 138.0 ± 34.4%

## C[S+](C)[O-] [DMSO, dimethyl sulfoxide]
[1]
  % activity Competitive binding assay: 72.8 ± 2.3%
[2]
  % activity Protein phosphatase assay: 97.9 ± 3.3%

## CO [MeOH]
[1]; 10%
  % activity Competitive binding assay: 73.9 ± 0.5%
[2]; 10%, preincubated 30 minutes on ice, relative to control, ± SEM
  % activity Protein phosphatase assay: 87.4 ± 4.1%

## [Cl-].[Na+] [NaCl]
[1]
  % activity Competitive binding assay: 41.2 ± 0.7%
[2]
  % activity Protein phosphatase assay: 44.4 ± 1.6%

## [F-].[Na+] [NaF]
[1]; 5 mM
  % activity Competitive binding assay: 102.0 ± 3.3%
[1]; 50 mM
  % activity Competitive binding assay: 101.5 ± 1.9%
[2]; 5 mM, preincubated 30 minutes on ice, relative to control, ± SEM
  % activity Protein phosphatase assay: 62.6 ± 0.4%
[2]; 50 mM, preincubated 30 minutes on ice, relative to control, ± SEM
  % activity Protein phosphatase assay: 7.7 ± 1.4%

## O=P([O-])([O-])OP(=O)([O-])[O-].[Na+].[Na+].[Na+].[Na+] [NaPPi]
[1]; 0.05 mM
  % activity Competitive binding assay: 101.4 ± 4.1%
[2]; 0.05 mM, preincubated 30 minutes on ice, relative to control, ± SEM
  % activity Protein phosphatase assay: 14.2 ± 1.2%

## CC#N [acetonitrile]
[1]
  % activity Competitive binding assay: 90.4 ± 5.4%
[2]
  % activity Protein phosphatase assay: 88.2 ± 2.7%

## COC[C@@H]([C@H](O)[C@H](O)C(=O)NCC[C@H](C)c1nc(/C=C/C[C@@H]2O[C@]3(C[C@@H](O)[C@@H]2C)O[C@H]([C@H](C[C@H](O)[C@H](C)[C@H](O)[C@H](C)/C=C(C)/C(C)=C/C=C/C(C)=C\C#N)OC)[C@H](OP(=O)(O)O)C3(C)C)co1)N(C)C [calyculin A, reference compound]
[1]; read-out: IC50
  IC50: 0.251 nM

## C=C1C(=O)N[C@H](C)C(=O)N[C@@H](CC(C)C)C(=O)N[C@@H](C(=O)O)[C@H](C)C(=O)N[C@@H](CCCNC(=N)N)C(=O)N[C@@H](/C=C/C(C)=C/[C@H](C)[C@H](Cc2ccccc2)OC)[C@H](C)C(=O)N[C@@H](C(=O)O)CCC(=O)N1C [microcystin-LR, reference compound] (R[Adda][d(γGlu)][NMeDha][dA]L[dAsp(3S-Me)]-OH; lactam N-7)
[1]; read-out: IC50
  IC50: 0.017 nM

## C/C=C1/C(=O)N[C@@H](C(=O)O)[C@H](C)C(=O)N[C@@H](CCCNC(=N)N)C(=O)N[C@@H](/C=C/C(C)=C/[C@H](C)[C@H](Cc2ccccc2)OC)[C@H](C)C(=O)N[C@@H](C(=O)O)CCC(=O)N1C [nodularin, reference compound]
[1]; read-out: IC50
  IC50: 0.015 nM

## C=C1[C@@H](O)[C@@H]2O[C@]3(CC[C@H](/C=C/[C@@H](C)[C@@H]4CC(C)=C[C@@]5(O[C@H](C[C@@](C)(O)C(=O)O)CC[C@H]5O)O4)O3)CC[C@H]2O[C@@H]1[C@@H](O)C[C@H](C)[C@H]1O[C@@]2(CCCCO2)CC[C@H]1C [okadaic acid, reference compound]
[1]
  IC50: 0.1 nM

## CO[C@H]([C@H](O)CC(=O)[C@@H](C)[C@@H](O)CC[C@@H](C)[C@@H]1O[C@]2(CC[C@@H](C)[C@H](CC[C@H](C)C(C)=O)O2)CC[C@@H]1C)[C@H](OC(=O)C[C@@H](O)C1=C(C)C(=O)OC1=O)C(C)C [tautomycin, reference compound]
[1]
  IC50: 0.562 nM

## Nonidet P-40
[1]; 0.4%
  % activity Competitive binding assay: 106.0 ± 2.0%
[2]; [5]
  % activity Protein phosphatase assay: 61.1 ± 1.3%

## Triton X-100
[1]; 0.4%
  % activity Competitive binding assay: 122.3 ± 1.0%
[2]; [5]
  % activity Protein phosphatase assay: 60.2 ± 5.7%

## microcystin-YR [reference compound]
[1]; read-out: IC50
  IC50: 0.075 nM
